Non-standard residues stand in square brackets, D forms with d. Residues, ends and D or L forms follow the SMILES beside them. *: point of attachment. Sta = CC(C)C[C@H](N)[C@@H](O)CC(=O)O; Isovaleryl = CC(C)CC(=O)*

What is called Ki is the equilibrium dissociation constant of an inhibitor or competing ligand from its target.

In data set [1] the target is T1, XMRV PR (Xenotropic MuLV-related virus VP62, UniProt A1Z651). The data set can be described thus: HPLC-based cleavage assay with peptide RSLLY-PALTP. The settings on record: read-out: XMRV PR Ki; cited from earlier work. The class given is biochemical.
T1 sequence (A1Z651 533-657): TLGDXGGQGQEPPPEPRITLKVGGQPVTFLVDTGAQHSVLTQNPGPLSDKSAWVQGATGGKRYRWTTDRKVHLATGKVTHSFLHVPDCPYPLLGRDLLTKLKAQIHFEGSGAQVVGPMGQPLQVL
The target of data set [2] is T1, XMRV PR. The settings on record: PDB 3SM1; cited from earlier work.
Data set [3] has as its target T1, XMRV PR. The settings on record: previous study; cited from earlier work.
The next data set has as its target HIV-1 PR (Human immunodeficiency virus type 1 group M subtype B, UniProt P04585, C555A/C583A/L521I/L551I/Q495K). The data set can be described thus: Urea dissociation of HIV-1 PR. The class given is physicochemical. The settings on record: half-maximal velocity; urea 0–4.0 M, 5.5 nM HIV-1 PR, 0.3 mM substrate, HPLC.

Regarding `CC(C)CC(=O)N[C@H](C(=O)N[C@H](C(=O)N[C@@H](CC(C)C)[C@@H](O)CC(=O)N[C@@H](C)C(=O)N[C@@H](CC(C)C)[C@@H](O)CC(=O)O)C(C)C)C(C)C` [Pepstatin A, pepstatin A (isovaleryl-Val-Val-Sta-Ala-Sta)] (Isovaleryl-VV[Sta]A[Sta]-OH), at XMRV PR [1], the Ki was 1440 nM.

With `CC(C)CC(=O)N[C@H](C(=O)N[C@H](C(=O)N[C@@H](CC(C)C)[C@@H](O)CC(=O)N[C@@H](C)C(=O)N[C@@H](CC(C)C)[C@@H](O)CC(=O)O)C(C)C)C(C)C` [Pepstatin A, pepstatin A] (Isovaleryl-VV[Sta]A[Sta]-OH), on XMRV PR [2], the “binding mode to XMRV PR (crystal structure)” value is “two inhibitor molecules binding to the enzyme, leaving the catalytic water in place”. For the same molecule, on XMRV PR [3], the “Inhibition of XMRV PR (in words)” value is “only a very weak inhibitor of XMRV PR”.

For the molecule “HIV-1 PR: Purified HIV-1 PR, containing stabilizing mutations (Q7K, L33I, L63I, C67A and C95A)”, the “Urea dissociation (UC50)” value with HIV-1 PR amounted to 1.47 M.

Values taken from publication PMC6290463 (The FEBS journal, 2012).
